Several values for one entry are separate records, joined by “and”; a condition that tells them apart may be missing. Identical values can stand only once.
How the values were obtained:
Huh-7 cells = experiment: Whole genome bisulfite sequencing (WGBS), promoter 5mCpG demethylation; format: cell-based, human; conditions: Huh-7, HG 72 h, 25 μM 4 h
Procedure: Each sample, 2 μg, was sent to EpigenDx, Inc. (Hopkinton, Mass.) for analysis of global methylation bisulfite sequencing. The same samples, 6 μg, were sent to Novogene Co., Ltd (Tianjin, China) for analysis of whole genome bisulfite sequencing (WGBS). Total RNA was isolated using the Promega SV total RNA isolation system (Madison, Wis.) with DNase treatment. Each sample, 2 μg, was used for the first-strand cDNA synthesis as recommended by the manufacturer (Invitrogen, Carlsbad, Calif.). Real-time RT-PCR was performed using SYBR Green as the indicator on ABI 7500 Fast Real-Time PCR System (Applied Biosystems, Foster City, Calif.). Amplifications of j-actin or GAPDH were used as internal controls. Relative messenger RNA (mRNA) expression was quantified with the comparative cycle threshold (Ct) method using the primer set shown in Table 1.1 and was expressed as 2^−ΔΔct.
Each sample, 5.2 μg of genomic DNA spiked with 26 ng lambda DNA, was fragmented by sonication to 200-300 bp with Covaris S220, followed by end repair and adenylation. Cytosine-methylated barcodes were ligated to sonicated DNA per the manufacturer's instructions. These DNA fragments were treated twice with bisulfite using EZ DNA Methylation-Gold™ Kit™ (Zymo Research) before the resulting single-strand DNA fragments were PCR amplified using KAPA HiFi Hot Start Uracil and Ready Mix (2×). Library concentration was quantified by Qubit® 2.0 Flurometer (Life Technologies, CA, USA) and quantitative PCR, and the insert size was assayed on an Agilent Bioanalyzer 2100 system.
The library preparations were sequenced on an Illumina Hiseq 2500/4000 or Novaseq™ platform and 125 bp/150 bp paired-end reads were generated. Image analysis and base calling were performed with Illumina CASAVA pipeline. Trimmomatic (Trimmomatic-0.36) software was used for quality control. Bismark software (version 0.16.3; Krueger F, 2011) was used to perform alignments of bisulfite-treated reads to a reference genome (−X 700-dovetail). DSS software (23) was used to identify differentially methylated regions (DMRs). KOBAS software was used to test the statistical enrichment of DMR related genes in the Kyoto Encyclopedia of Genes and Genomes (KEGG) pathways.
Each sample (6 μg) was used for analysis of the whole genome bisulfite sequencing (WGBS).

[1] = Metabolite profiling of plasma, urine, feces, intravenous dose; format: in vivo, rats; conditions: intravenous 10 mg/kg
Procedure: Plasma pools were made from Group 1 rats at the 0.083, 0.25, 0.5, and 1-hour collection time points.
Urine pools were prepared for Group 2 at 0 to 6 and 6 to 12 hours post-dose.
Feces pools were prepared for Group 2 at 0 to 12, 12 to 24, and 24 to 48 hours post-dose.

## C[C@H](CCCC(C)(C)O)[C@H]1CC[C@H]2[C@@H]3CC=C4C[C@@H](OS(=O)(=O)O)CC[C@]4(C)[C@H]3CC[C@]12C [25HC3S, 5-Cholesten-3β, 25-diol 3-sulfate]
Huh-7 cells; Chr1 1.43E+08
  DMR (Methylation %) 25HC3S-Vehicle, DRD5P2 promoter: −34.73%
Huh-7 cells; Chr1 2.27E+08
  DMR (Methylation %) 25HC3S-Vehicle, ITPKB promoter: −25.12%
Huh-7 cells; Chr2 1.02E+08
  DMR (Methylation %) 25HC3S-Vehicle, MAP4K4 promoter: −13.63%
Huh-7 cells; Chr2 11344628-11344733
  DMR (Methylation %) 25HC3S-Vehicle, ROCK2 promoter: −23.14%
Huh-7 cells; Chr2 28751716-28751798
  DMR (Methylation %) 25HC3S-Vehicle, PPP1CB promoter: −10.93%
Huh-7 cells; Chr3 1.23E+08
  DMR (Methylation %) 25HC3S-Vehicle, ADCY5 promoter: −30.44%
Huh-7 cells; Chr3 11154292-11154354
  DMR (Methylation %) 25HC3S-Vehicle, HRH1 promoter: −25.48%
Huh-7 cells; Chr3 38029863-38030016
  DMR (Methylation %) 25HC3S-Vehicle, PLCD1 promoter: −24.31%
Huh-7 cells; Chr3 52056416-52056485
  DMR (Methylation %) 25HC3S-Vehicle, DUSP7 promoter: −40.47%
Huh-7 cells; Chr3 53494583-53494705
  DMR (Methylation %) 25HC3S-Vehicle, CACNA1D promoter: −20.46%
Huh-7 cells; Chr4 1.59E+08
  DMR (Methylation %) 25HC3S-Vehicle, RAPGEF2 promoter: −36.05%
Huh-7 cells; Chr5 59893498-59893718
  DMR (Methylation %) 25HC3S-Vehicle, PDE4D promoter: −27.84%
Huh-7 cells; Chr6 1.68E+08
  DMR (Methylation %) 25HC3S-Vehicle, AFDN promoter: −30.68%
Huh-7 cells; Chr6 31828019-31828149
  DMR (Methylation %) 25HC3S-Vehicle, AL671762.1 promoter: −27.17%
Huh-7 cells; Chr7 28489448-28489601
  DMR (Methylation %) 25HC3S-Vehicle, CREB5 promoter: −29.31%
Huh-7 cells; Chr7 42228171-42228223
  DMR (Methylation %) 25HC3S-Vehicle, GLI3 promoter: −19.62%
Huh-7 cells; Chr7 45574500-45574591
  DMR (Methylation %) 25HC3S-Vehicle, ADCY1 promoter: −14.76%
Huh-7 cells; Chr9 1.34E+08
  DMR (Methylation %) 25HC3S-Vehicle, VAV2 promoter: −33.11%
Huh-7 cells; Chr9 78032198-78032440
  DMR (Methylation %) 25HC3S-Vehicle, GNAQ promoter: −11.92%
Huh-7 cells; Chr9 95508446-95508561
  DMR (Methylation %) 25HC3S-Vehicle, PTCH1 promoter: −12.09%
Huh-7 cells; Chr9 98708549-98708610
  DMR (Methylation %) 25HC3S-Vehicle, GABBR2 promoter: −21.84%
Huh-7 cells; Chr10 1.14E+08
  DMR (Methylation %) 25HC3S-Vehicle, ADRB1 promoter: −33.1%
Huh-7 cells; Chr10 18140401-18140547
  DMR (Methylation %) 25HC3S-Vehicle, CACNB2 promoter: −21.91%
Huh-7 cells; Chr10 48306510-48306561
  DMR (Methylation %) 25HC3S-Vehicle, MAPK8 promoter: −29.24%
Huh-7 cells; Chr11 535071-535127
  DMR (Methylation %) 25HC3S-Vehicle, HRAS promoter: −18.85%
Huh-7 cells; Chr11 1572973-1573032
  DMR (Methylation %) 25HC3S-Vehicle, DUSP8 promoter: −30.51%
Huh-7 cells; Chr11 64286088-64286179
  DMR (Methylation %) 25HC3S-Vehicle, BAD promoter: −42.33%
Huh-7 cells; Chr11 65661914-65662035
  DMR (Methylation %) 25HC3S-Vehicle, RELA promoter: −35.1%
Huh-7 cells; Chr12 2691335-2691438
  DMR (Methylation %) 25HC3S-Vehicle, CACNA1C-AS1 promoter: −20.97%
Huh-7 cells; Chr12 5432796-5432882
  DMR (Methylation %) 25HC3S-Vehicle, NTF3 promoter: −33.48%
Huh-7 cells; Chr13 77919496-77919743
  DMR (Methylation %) 25HC3S-Vehicle, EDNRB promoter: −34.09%
Huh-7 cells; Chr13 95301634-95301736
  DMR (Methylation %) 25HC3S-Vehicle, ABCC4 promoter: −33.06%
Huh-7 cells; Chr14 24334570-24334719
  DMR (Methylation %) 25HC3S-Vehicle, ADCY4 promoter: −18.63%
Huh-7 cells; Chr14 65102273-65102358
  DMR (Methylation %) 25HC3S-Vehicle, MAX promoter: −31.75%
Huh-7 cells; Chr14 70188747-70189089
  DMR (Methylation %) 25HC3S-Vehicle, SLC8A3 promoter: −28.51%
Huh-7 cells; Chr14 75982395-75982557
  DMR (Methylation %) 25HC3S-Vehicle, TGFB3 promoter: −23.74%
Huh-7 cells; Chr16 1194928-1195015
  DMR (Methylation %) 25HC3S-Vehicle, CACNA1H promoter: −26.48%
Huh-7 cells; Chr16 10183302-10183414
  DMR (Methylation %) 25HC3S-Vehicle, GRIN2A promoter: −19.63%
Huh-7 cells; Chr17 74861739-74861853
  DMR (Methylation %) 25HC3S-Vehicle, GRIN2C promoter: −37.6% and −37.64%
Huh-7 cells; Chr17 76383180-76383291
  DMR (Methylation %) 25HC3S-Vehicle, SPHK1 promoter: −24.74%
Huh-7 cells; Chr19 1000331-1000405
  DMR (Methylation %) 25HC3S-Vehicle, GRIN3B promoter: −34.67%
Huh-7 cells; Chr19 2474806-2474873
  DMR (Methylation %) 25HC3S-Vehicle, GADD45B promoter: −28.6%
Huh-7 cells; Chr19 3094383-3094442
  DMR (Methylation %) 25HC3S-Vehicle, GNA11 promoter: −32.66%
Huh-7 cells; Chr19 3156392-3156457
  DMR (Methylation %) 25HC3S-Vehicle, AC005264.2 promoter: −15.76%
Huh-7 cells; Chr19 13226635-13226711
  DMR (Methylation %) 25HC3S-Vehicle, CACNA1A promoter: −39.91%
Huh-7 cells; Chr19 38596260-38596495
  DMR (Methylation %) 25HC3S-Vehicle, CTB-186G2.1 promoter: −34.3%
  DMR (Methylation %) 25HC3S-Vehicle, MAP4K1 promoter: −34.3%
Huh-7 cells; Chr19 41999134-41999316
  DMR (Methylation %) 25HC3S-Vehicle, ATP1A3 promoter: −15.75%
Huh-7 cells; Chr19 45668710-45668767
  DMR (Methylation %) 25HC3S-Vehicle, GIPR promoter: −10.04%
Huh-7 cells; Chr19 53961377-53961479
  DMR (Methylation %) 25HC3S-Vehicle, CACNG8 promoter: −31.18%
Huh-7 cells; Chr20 58888598-58888893
  DMR (Methylation %) 25HC3S-Vehicle, GNAS promoter: −25.68%
Huh-7 cells; Chr22 21867450-21867512
  DMR (Methylation %) 25HC3S-Vehicle, MAPK1 promoter: −7.66%
Huh-7 cells; Chr22 39243967-39244084
  DMR (Methylation %) 25HC3S-Vehicle, PDGFB promoter: −30.51%
[1]; 0 to 48 hours post-dose pools
  amount in feces, % of dose: 2 % of dose
[1]; up to 1 hour post-dose
  share of the exposure (AUC) to 25HC3S related radioactivity, plasma: approximately 54%
